Assay results from patent publication US5891877A, “Pharmaceutical compounds” (Xenova Limited, priority 1996, dated 1999).

Molecular target: PAI-1 (Homo sapiens, UniProt P05121)
Experiment: PAI-1 inhibition in the S2251 chromogenic substrate assay (PAI functional assay)
Assay type: biochemical
Details: for INHIBITION OF PAI-1 (degree of inhibition): Table 1, first part, unit assumed; for IC50: PAI-1, S2251 assay, Table 2
Experimental: In this assay, a compound is incubated with PAI-1 prior to addition to the tPA assay system. Inhibition of PAI-1 results in the production of plasmin from plasminogen. […]
Compounds of formula (A) were tested in a PAI chromogenic substrate assay. […] In turn, the plasmin cleaved the chromogenic substrate S2251 (Kabi-Vitrum) producing pNA (p-nitroaniline) which was detected scectrophotometrically at 405 nm.

Sequence of PAI-1 (P05121 24-402): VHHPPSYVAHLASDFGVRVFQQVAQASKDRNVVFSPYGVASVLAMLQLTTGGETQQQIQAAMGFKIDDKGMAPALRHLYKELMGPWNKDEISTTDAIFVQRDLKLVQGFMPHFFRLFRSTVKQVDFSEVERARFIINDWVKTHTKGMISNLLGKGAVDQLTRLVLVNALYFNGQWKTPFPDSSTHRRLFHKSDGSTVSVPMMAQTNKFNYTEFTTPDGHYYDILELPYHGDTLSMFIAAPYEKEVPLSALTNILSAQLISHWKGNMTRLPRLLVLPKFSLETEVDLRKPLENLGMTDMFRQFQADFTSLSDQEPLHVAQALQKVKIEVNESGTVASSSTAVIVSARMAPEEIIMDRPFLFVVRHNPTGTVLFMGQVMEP

INHIBITION OF PAI-1 (degree of inhibition) (6.25 μm)	INHIBITION OF PAI-1 (degree of inhibition) (12.5 μm)	INHIBITION OF PAI-1 (degree of inhibition) (25 μm)	INHIBITION OF PAI-1 (degree of inhibition) (50 μm)	INHIBITION OF PAI-1 (degree of inhibition) (100 μm)	IC50	Structure (SMILES)
1%	4%	13%	44%	70%	50 to 100 µM	CC(=O)Nc1ccc(/C=c2\[nH]c(=O)/c(=C/C3CCCCC3)[nH]c2=O)cc1 [Compound 1672]
1%	12%	52%	51%	29%	12 to 25 µM	CC(=O)Nc1ccc(/C=c2\[nH]c(=O)/c(=C/C=Cc3ccccc3)[nH]c2=O)cc1 [Compound 1676, (3Z,6Z)-3-(4-Acetamidobenzylidene)-6-cinnamylidene-2,5-piperazinedione]
	0%	1%	2%	89%	50 to 100 µM	COc1ccc(/C=c2\[nH]c(=O)/c(=C/c3cn(S(C)(=O)=O)c4ccccc34)[nH]c2=O)cc1 [Compound 1693, (3Z,6Z)-3-(1-methanesulfonyl-3-indolyl)methylene-6-(4-methoxybenzylidene)-2,5-piperazinedione]
1%	0%	0%	1%	62%	50 to 100 µM	COc1ccc(/C=c2\[nH]c(=O)/c(=C/c3cc4ccccc4[nH]3)[nH]c2=O)cc1 [Compound 1718, (3Z,6Z)-3-(2-Indolylmethylene)-6-(4-methoxybenzylidene)-2,5-piperazinedione]
1%	2%	73%	48%	76%		O=c1[nH]/c(=C\c2ccc3c(c2)OCO3)c(=O)[nH]/c1=C\c1ccccc1 [Compound 1808, (3Z,6Z)-3-Benzylidene-6-(3,4-methylenedioxybenzylidene)-2,5-piperazinedione]
1%	7%	84%	76%	81%		COc1ccc(/C=c2\[nH]c(=O)/c(=C/c3ccc4c(c3)OCO4)[nH]c2=O)cc1 [Compound 1809, (3Z,6Z)-3-(4-Methoxybenzylidene)-6-(3,4-methylenedioxybenzylidene)-2,5-piperazinedione]
53%	60%	49%	30%	14%		CC(=O)Nc1ccc(/C=c2\[nH]c(=O)/c(=C/c3ccc4c(c3)OCO4)[nH]c2=O)cc1 [Compound 1845, (3Z,6Z)-3-(4-Acetamidobenzylidene)-6-(3,4-methylenedioxybenzylidene)-2,5-piperazinedione]
0%	0%	0%	14%	40%		O=c1[nH]/c(=C\C2CCCCC2)c(=O)[nH]/c1=C\c1ccccc1 [Compound 1884, (3Z,6Z)-3-Benzylidene-6-cyclohexylmethylene-2,5-piperazinedione]
3%	3%	17%	36%	28%		CCOC(OCC)c1ccc(/C=c2\[nH]c(=O)/c(=C/c3ccccc3)[nH]c2=O)cc1 [Compound 1891]
63%	61%	50%	36%	27%	5 to 10 µM	O=c1[nH]/c(=C\c2ccc(OCCn3ccnc3)cc2)c(=O)[nH]/c1=C\c1ccccc1 [Compound 1910, (3Z,6Z)-3-Benzylidene-6-(4-(2-imidazolylethoxy)benzylidene)-2,5-piperazinedione]
16%	14%	25%	43%	65%		CN(C)c1ccc(C=C/C=c2\[nH]c(=O)/c(=C/c3ccccc3)[nH]c2=O)cc1 [Compound 1921, (3Z,6Z)-3-Benzylidene-6-(4-dimethylaminocinnamylidene)-2,5-piperazinedione]
14%	13%	26%	11%	13%		O=c1[nH]/c(=C\c2ccccc2)c(=O)[nH]/c1=C\C=C(c1ccccc1)c1ccccc1 [Compound 1922, (3Z,6Z)-3-Benzylidene-6-(γ-phenylcinnamylidene)-2,5-piperazinedione]
13%	12%	20%	31%	38%		O=c1[nH]/c(=C\c2ccccc2)c(=O)[nH]/c1=C\C=Cc1ccc([N+](=O)[O-])cc1 [Compound 1923]

Structure (SMILES)	INHIBITION OF PAI-1 (degree of inhibition) (6.25 μm)	INHIBITION OF PAI-1 (degree of inhibition) (12.5 μm)	INHIBITION OF PAI-1 (degree of inhibition) (25 μm)	INHIBITION OF PAI-1 (degree of inhibition) (50 μm)	INHIBITION OF PAI-1 (degree of inhibition) (100 μm)	IC50
CC(C)(C)OC(=O)n1cc(/C=c2\[nH]c(=O)/c(=C/c3c(Cl)cccc3Cl)[nH]c2=O)c2ccccc21 [Compound 1560, (3Z,6Z)-3-(2,6-Dichlorobenzylidene)-6-(1-tert-butoxycarbonyl-3-indolyl)methylene-2,5-piperazinedione]	13%	34%	46%	48%	50%	50 to 100 µM
CC(C)(C)OC(=O)n1cc(/C=c2\[nH]c(=O)/c(=C/c3cccs3)[nH]c2=O)c2ccccc21 [Compound 1618, (3Z,6Z)-3-(1-tert-butoxycarbonyl-3-indolyl)methylene-6-(2-thenylidene)-2,5-piperazinedione]		1%	3%	32%	51%	50 to 100 µM
COc1ccc(/C=c2\[nH]c(=O)/c(=C/c3ccc(CN)cc3)[nH]c2=O)cc1 [Compound 1657, (3Z,6Z)-3-(4-Aminomethylbenzylidene)-6-(4-methoxybenzylidene)-2,5-piperazinedione]		2%	46%	60%	53%	25 to 50 µM
COc1ccc(/C=c2\[nH]c(=O)/c(=C/c3ccc(OC(=O)CN4C(=O)c5ccccc5C4=O)cc3)[nH]c2=O)cc1 [Compound 1886, (3Z,6Z)-3-(4-Methoxybenzylidene)-6-(4-phthalimidoacetoxybenzylidene)-2,5-piperazinedione]	0%	6%	18%	40%	42%	
